# Assay results: patent publication US8067424B2, “Selective inhibitors for cyclin-dependent kinases” (Emory University, priority 2007, dated 2011)
# Where two headings read alike, the source gives them in different places.
# Experiments:
# Format in all cases: biochemical
# RSK1 = RSK1 (Homo sapiens, UniProt Q15418); assay: Kinase screen: MAPKAP-K1a assay
# Method: (§1) Generally, the same procedure was used for all assays. Since the total assay volume was 25.5 microliters, 0.5 microliters of inhibitors at 51× assay concentration were added to the plates before any other addition.
# (§2) The basic procedure was to add 0.5 microliters inhibitor/control in DMSO to plate. Fifteen microliters of enzyme/substrate/buffer mix were added and incubated for 5 min. Ten microliters MgATP at the relevant concentration were added and incubated for 30 min. The assay was stopped by adding 5 microliters of 3% orthophosphoric acid. The assay was transferred to a p81 filter plate and read in a scintillation counter of 30 sec/well. Note that this assay procedure was not followed for MKK1, which instead involved a two-step assay, and PKC alpha, which required the addition of lipid vesicles.
# MAPKAP-K1a assay: MAPKAP-K1a (5-20 mU diluted in 20 mM MOPS pH 7.5, 1 mM EDTA, 0.01% Brij35, 5% glycerol, 0.1% b-mercaptoethanol, 1 mg/ml BSA) was assayed against […] (SEQ ID NO: 3) in a final volume of 25.5 μl containing 50 mM Na-b-glycerophosphate pH 7.5, 0.5 mM EDTA, 30 μM substrate peptide, 10 mM magnesium acetate and 0.05 mM [33P-g-ATP] (50-1000 cpm/pmole) and incubated for 40 min at room temperature. Assays were stopped by addition of 5 μl of 0.5 M (3%) orthophosphoric acid and then harvested onto P81 Unifilter plates with a wash buffer of 50 mM orthophosphoric acid.
# CK1 = CK1 (Homo sapiens, UniProt P48730); assay: Kinase screen: CK1 assay
# Method: as §2, with “Generally, the same procedure was used for all assays. […] The basic” for “The basic”, “30 min. […] The assay” for “30 min. The assay was stopped by adding 5 microliters of 3% orthophosphoric acid. The assay”, “lipid vesicles. CK1 assay: […]” for “lipid vesicles.”
# CK2 = assay: Kinase screen: CK2 assay; details: for mean activity remaining (as a percentage of the original activity), CK 2: 10 micromolar compound
# Method: as §2, with “Generally, the same procedure was used for all assays. Since the total assay volume was 25.5 microliters, 0.5 microliters of inhibitors at 51× assay concentration were added to the plates before any other addition. […] The basic” for “The basic”, “30 min. […] The assay” for “30 min. The assay was stopped by adding 5 microliters of 3% orthophosphoric acid. The assay”, “lipid vesicles. CK2 assay: […]” for “lipid vesicles.”
# NEK2a = biological target: T1, NEK2a (Homo sapiens, UniProt P51955); assay: Kinase screen: NEK2a assay
# T1 sequence (P51955 1-445): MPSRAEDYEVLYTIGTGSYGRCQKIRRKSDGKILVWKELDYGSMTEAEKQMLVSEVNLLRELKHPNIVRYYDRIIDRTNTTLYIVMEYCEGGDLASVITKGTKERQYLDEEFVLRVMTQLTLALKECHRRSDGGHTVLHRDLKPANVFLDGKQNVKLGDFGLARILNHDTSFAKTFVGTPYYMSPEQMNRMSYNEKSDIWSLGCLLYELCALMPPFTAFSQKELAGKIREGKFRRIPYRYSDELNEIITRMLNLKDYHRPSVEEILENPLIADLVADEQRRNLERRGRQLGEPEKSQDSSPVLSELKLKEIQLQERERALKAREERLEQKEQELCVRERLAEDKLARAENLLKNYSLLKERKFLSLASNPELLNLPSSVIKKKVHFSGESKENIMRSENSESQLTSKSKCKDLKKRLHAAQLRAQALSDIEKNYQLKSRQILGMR
# Method: as §1, §2
# NEK2a assay: 5-20 mU of NEK2a (diluted in 50 mM Tris (pH 7.5), 0.1 mM EGTA, 1 mg/ml BSA, 0.1%, b-Mercaptoethanol) was assayed against NEK2a peptide ([…]) (SEQ ID NO: 19) in a final volume of 25.5 μl containing 50 mM Tris (pH 7.5), 0.1 mM EGTA, 0.01% Brij, 0.1%, b-Mercaptoethanol, 300 μM NEK2a peptide, 10 mM magnesium acetate and 0.05 mM [33P-g-ATP] (500-1000 cpm/pmole) and incubated for 30 mins at room temperature. Assays were stopped by addition of 5 µl of 0.5M (3%) orthophosphoric acid. Assays were harvested onto P81 Unifilter plates using a wash buffer of 50 mM orthophosphoric acid.
# [1] = 10 micromolar compound, read-out: mean activity remaining (as a percentage of the original activity), RSK1
# [2] = 0.5 h, 10 micromolar compound, read-out: mean activity remaining (as a percentage of the original activity), CK 1
# [3] = 10 micromolar compound, read-out: mean activity remaining (as a percentage of the original activity), NEK 2a
# Sequence of CK1 (P48730 whole entry): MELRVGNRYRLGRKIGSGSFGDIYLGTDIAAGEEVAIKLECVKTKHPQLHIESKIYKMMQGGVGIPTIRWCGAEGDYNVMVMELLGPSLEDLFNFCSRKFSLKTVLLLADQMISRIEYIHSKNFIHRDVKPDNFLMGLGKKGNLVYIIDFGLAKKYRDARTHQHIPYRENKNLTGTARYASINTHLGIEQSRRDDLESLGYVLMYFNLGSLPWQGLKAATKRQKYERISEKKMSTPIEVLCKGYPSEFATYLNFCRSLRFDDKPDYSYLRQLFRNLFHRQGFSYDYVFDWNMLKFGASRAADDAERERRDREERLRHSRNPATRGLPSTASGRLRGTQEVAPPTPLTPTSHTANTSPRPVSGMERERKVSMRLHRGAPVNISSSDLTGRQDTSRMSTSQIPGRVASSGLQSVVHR
# Sequence of RSK1 (Q15418 whole entry, species assumed): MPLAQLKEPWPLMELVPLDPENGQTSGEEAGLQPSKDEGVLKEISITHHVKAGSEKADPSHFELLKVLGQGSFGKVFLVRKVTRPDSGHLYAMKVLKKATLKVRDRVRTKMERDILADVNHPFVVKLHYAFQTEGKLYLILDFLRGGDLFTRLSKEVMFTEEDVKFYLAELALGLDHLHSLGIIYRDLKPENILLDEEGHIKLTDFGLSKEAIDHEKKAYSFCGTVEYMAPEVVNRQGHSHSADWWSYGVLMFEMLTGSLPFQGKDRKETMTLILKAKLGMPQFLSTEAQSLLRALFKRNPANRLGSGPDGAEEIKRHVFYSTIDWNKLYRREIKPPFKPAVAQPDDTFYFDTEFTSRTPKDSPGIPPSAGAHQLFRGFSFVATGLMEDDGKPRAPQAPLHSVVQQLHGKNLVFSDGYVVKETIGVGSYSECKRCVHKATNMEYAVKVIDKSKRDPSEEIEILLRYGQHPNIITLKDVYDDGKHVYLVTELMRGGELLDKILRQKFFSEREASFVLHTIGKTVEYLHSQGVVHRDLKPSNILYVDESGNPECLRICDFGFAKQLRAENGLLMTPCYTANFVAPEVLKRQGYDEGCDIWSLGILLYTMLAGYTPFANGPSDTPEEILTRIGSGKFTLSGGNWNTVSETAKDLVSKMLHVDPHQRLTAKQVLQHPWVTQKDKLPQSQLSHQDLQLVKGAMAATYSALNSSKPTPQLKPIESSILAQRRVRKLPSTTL
Compound,remaining activity at 10 µM (RSK1; [1]),remaining activity at 10 µM (CK1; [2]),"mean activity remaining (as a percentage of the original activity), CK 2 (CK2)",remaining activity at 10 µM (NEK2a; [3]),further results
CC(C)c1cnn2c(NCc3ccccc3)cc(NCCCCCCCN)nc12 [BS-181],,,,,"remaining activity at 10 µM (RSK1; RSK1, 10 μM, read-out: Mean Remaining Enzyme Activity (%)): 67%; remaining activity at 10 µM (CK1; CK1, 10 μM, read-out: Mean Remaining Enzyme Activity (%)): 29%; Mean Remaining Enzyme Activity (%) (CK2; CK2, 10 μM): 108%; remaining activity at 10 µM (NEK2a; NEK2a, 10 μM, read-out: Mean Remaining Enzyme Activity (%)): 92%"
C=C[C@H](CO)Nc1cc(NCc2ccccc2)n2ncc(C(C)C)c2n1 [ICEC0065],79%,19%,94%,96%,
CC[C@H](CO)Nc1cc(NCc2ccccc2)n2ncc(C(C)C)c2n1 [ICEC0067],62%,16%,87%,75%,
"CC(C)c1cnn2c(NCc3ccccc3)cc(N[C@@H](CO)[C@H](O)CO)nc12 [ICEC0318, (3S)-3-(7-(Benzylamino)-3-isopropylpyrazolo[1,5-a]pyrimidin-5-ylamino)butane-1,2,4-triol]",75%,,89%,102%,"remaining activity at 10 µM (CK1; 0.5 h, read-out: mean activity remaining (as a percentage of the original activity), CK 1): 19%"
CC(C)c1cnn2c(NCc3ccccc3F)cc(NCCCCCN)nc12 [ICEC-0232],,,92%,,"mean activity remaining (as a percentage of the original activity), RSK1 (RSK1; 10 micromolar compound): 24%; mean activity remaining (as a percentage of the original activity), CK 1 (CK1; 10 micromolar compound): 9%; mean activity remaining (as a percentage of the original activity), NEK 2a (NEK2a; 10 micromolar compound): 83%"
